Assay results published in patent US10201564B2, “Methods of using inhaled nitric oxide gas for treatment of acute respiratory distress syndrome in children” (Mallinckrodt Hospital Products IP Limited, priority 2014, dated 2019).

What was measured:
Format in all cases: in vivo, human
[1] = tested on: pediatric subjects with acute hypoxemic respiratory failure (AHRF); experiment: Pediatric AHRF study: respiratory values (oxygen status, HFOV, CMV, ABG); conditions: 5 ppm
Description: (§1) Standardized ventilatory management and weaning procedures were used. Ventilatory management was used based on an “open lung approach” using positive end-expiratory pressure (PEEP) to increase lung volume and limiting tidal volumes to reduce plateau pressures. Subjects received nitric oxide for inhalation at 5 ppm or placebo (100% Grade 5 nitrogen gas) into the inspiratory limb of the ventilator circuit using a blinded version of the INOvent® delivery system. The subjects were treated until Day 28 or extubation, whichever occurred first. Subjects were assessed daily using a spontaneous breathing trial, according to the institution's standard of care. Arterial blood gases (ABG), ventilator settings, methemoglobin, oxygenation index, systolic blood pressure, diastolic blood pressure, Pediatric Risk of Mortality (PRISM) III score, and subject positioning (prone or supine) were performed/recorded at specified times during the study. Selected centers also performed plasma cytokine assays, bronchoalveolar lavage fluid (BALF) assays, and a 6-month follow-up assessment.
(§2) The following assessments were made at baseline: arterial blood gases, ventilator settings, methemoglobin, prone position, PRISM III score, oxygenation index, systolic and diastolic blood pressure, bronchoalveolar lavage fluid assay and plasma cytokine.
The following assessments were made at 4 hours±1 hour after the start of therapy: arterial blood gases, ventilator settings and methemoglobin.
The following assessments were made at 12 hours±2 hours after the start of therapy: arterial blood gases and ventilator settings.
(§3) The following assessments were made at 24 hours±2 hours after the start of therapy: arterial blood gases, ventilator settings, methemoglobin, systolic and diastolic blood pressure and plasma cytokine.
Oxygen status was determined at screening only. Respiratory values in the HFOV category were obtained at baseline, 4 hours, 12 hours, and 24 hours. Respiratory values in the categories conventional mechanical ventilation [CMV] and ABG were obtained at baseline, 4 hours, 12 hours, 24 hours, and at extubation.

[2] = tested on: pediatric subjects with acute hypoxemic respiratory failure (AHRF); experiment: Pediatric AHRF study: vital signs (systolic and diastolic blood pressure); conditions: 5 ppm
Description: as §1, §2, §3
Mean systolic and diastolic blood pressure increased slightly from baseline in both groups at 24 hours. Descriptive statistics for systolic and diastolic blood pressure, which were taken both at baseline and at 24 hours, are summarized Table 26.

[3] = tested on: patients with moderately severe Acute Lung Injury (ALI); experiment: Adult ALI/ARDS study: safety results (adverse events); conditions: initial 28-day study period
Description: A large-scale, randomized, blinded, placebo-controlled study was carried out in the Intensive Care Units (ICUs) of 46 US hospitals to evaluate the efficacy of low-dose (5 ppm) iNO in 385 patients with moderately severe Acute Lung Injury (ALI). The primary endpoint of this study was number of days alive and off assisted breathing.
Safety results for the initial 28-day study period have been reported and are summarized briefly here. A total of 630 adverse events (AEs) were reported for patients treated with iNO versus 666 events for those who received placebo. Respiratory system AEs occurred in 51% versus 61% of patients receiving iNO and placebo, respectively, primarily due to higher frequencies of pneumonia, pneumothorax, and apnea in the placebo group. Frequency of other AEs was similar in both groups.
Patients were randomly assigned to receive either inhaled placebo gas (nitrogen) or 5 ppm of iNO (INO Therapeutics Inc., Port Allen, La.). All patients, healthcare professionals, and investigators were blinded to the assigned treatment. Inhaled NO was administered via INOvent® delivery system (Datex-Ohmeda, Madison, Wis.) that blended treatment gas (nitrogen or NO at 100-ppm balance nitrogen) 1:20 with ventilator gases to achieve a target ppm value in the inspiratory limb of the ventilator.

## [N]=O [Nitric Oxide, nitric oxide]
[1]; 4 Hours
  ABG BE, Mean (SD): 0.7 (4.1) mEq/L
  ABG BE, Median: 1.0 mEq/L
  ABG HCO3, Mean (SD): 25.7 (3.9) mEq/L
  ABG HCO3, Median: 25.8 mEq/L
  ABG PaCO2, Mean (SD): 46.0 (18.2) mmHg
  ABG PaCO2, Median: 43.0 mmHg
  ABG PaO2, Mean (SD): 83.2 (22.6) mmHg
  ABG PaO2, Median: 78.5 mmHg
  ABG SaO2, Mean (SD): 95.7 (2.9) %
  ABG SaO2, Median: 95.9%
  ABG pH, Mean (SD): 7.4 (0.1)
  ABG pH, Median: 7.4
[1]; 12 Hours
  ABG BE, Mean (SD): 1.1 (4.1) mEq/L
  ABG BE, Median: 2.0 mEq/L
  ABG HCO2, Mean (SD): 26.7 (4.1) mEq/L
  ABG HCO2, Median: 27.0 mEq/L
  ABG PaCO2, Mean (SD): 47.4 (8.3) mmHg
  ABG PaCO2, Median: 48.4 mmHg
  ABG PaO2, Mean (SD): 68.7 (20.9) mmHg
  ABG PaO2, Median: 68.0 mmHg
  ABG SaO2, Mean (SD): 93.1 (3.2) %
  ABG SaO2, Median: 94.0%
  ABG pH, Mean (SD): 7.4 (0.1)
  ABG pH, Median: 7.4
[1]; 24 Hours
  ABG BE, Mean (SD): 2.3 (3.8) mEq/L
  ABG BE, Median: 2.8 mEq/L
  ABG HCO3, Mean (SD): 30.6 (14.1) mEq/L
  ABG HCO3, Median: 28.0 mEq/L
  ABG PaCO2, Mean (SD): 47.2 (11.5) mmHg
  ABG PaCO2, Median: 45.4 mmHg
  ABG PaO2, Mean (SD): 71.4 (16.8) mmHg
  ABG PaO2, Median: 69.0 mmHg
  ABG SaO2, Mean (SD): 92.2 (5.4) %
  ABG SaO2, Median: 93.0%
  ABG pH, Mean (SD): 7.4 (0.1)
  ABG pH, Median: 7.4
[1]; Baseline
  ABG BE, Mean (SD): 0.2 (5.3) mEq/L
  ABG BE, Median: 0.4 mEq/L
  ABG HCO3, Mean (SD): 25.6 (5.0) mEq/L
  ABG HCO3, Median: 26.0 mEq/L
  ABG PaCO2, Mean (SD): 45.3 (11.1) mmHg
  ABG PaCO2, Median: 46.5 mmHg
  ABG PaO2, Mean (SD): 67.5 (13.1) mmHg
  ABG PaO2, Median: 63.0 mmHg
  ABG SaO2, Mean (SD): 92.8 (3.5) %
  ABG SaO2, Median: 92.0%
  ABG pH, Mean (SD): 7.4 (0.1)
  ABG pH, Median: 7.4
[1]; Extubation Criteria
  ABG BE, Mean (SD): 5.0 (2.6) mEq/L
  ABG BE, Median: 4.0 mEq/L
  ABG HCO3, Mean (SD): 30.2 (2.8) mEq/L
  ABG HCO3, Median: 31.0 mEq/L
  ABG PaCO2, Mean (SD): 47.5 (8.4) mmHg
  ABG PaCO2, Median: 44.0 mmHg
  ABG PaO2, Mean (SD): 91.8 (42.3) mmHg
  ABG PaO2, Median: 78.0 mmHg
  ABG SaO2, Mean (SD): 94.6 (5.9) %
  ABG SaO2, Median: 96.0%
  ABG pH, Mean (SD): 7.4 (0.1)
  ABG pH, Median: 7.4
[1]; Screening
  Oxygen Status Oxygen Index 1, Mean (SD): 22.2 (8.2)
  Oxygen Status Oxygen Index 1, Median: 21.3
  Oxygen Status Oxygen Index 2, Mean (SD): 22.7 (7.9)
  Oxygen Status Oxygen Index 2, Median: 23.0
[2]; 24 Hours
  Diastolic BP, Mean (SD): 56.0 (12.7) mmHg
  Diastolic BP, Median: 54.5 mmHg
  Systolic BP, Mean (SD): 97.9 (21.7) mmHg
  Systolic BP, Median: 103.0 mmHg
[2]; Baseline
  Diastolic BP, Mean (SD): 54.6 (11.6) mmHg
  Diastolic BP, Median: 55.5 mmHg
  Systolic BP, Mean (SD): 94.4 (17.4) mmHg
  Systolic BP, Median: 95.5 mmHg
[3]
  Frequency of other (non-respiratory) AEs versus placebo: similar
[3]; placebo 61%
  Respiratory system AEs, patients: 51%
[3]; placebo 666
  adverse events (AEs) reported, total: 630
